# Test results taken from publication PMC10933344, “A lncRNA Dleu2-encoded peptide relieves autoimmunity by facilitating Smad3-mediated Treg induction” (EMBO Reports, 2024).
# Where no end group is shown, it is not given here.
# Tests used:
# [1] = test system: naive CD4+ T cells; assay: In vitro iTreg differentiation (Foxp3+ of CD4+ cells); type: cell-based, mouse; settings: 10 μM, 72 h, n = 4
# Protocol: C57BL/6 mice were sacrificed, and their spleens and peripheral lymph nodes were removed and gently dissociated into single-cell suspensions. Naive T cells were isolated using the Mouse CD4 Naive T Cell Isolation Kit (BioLegend, Stem Cell, or Thermo Fisher Scientific). Flow cytometry verified that the purity (CD4^+CD25^−CD62L^hi) of the enriched subpopulation was typically higher than 95%. All T cells were cultured using RPMI-1640 medium (Gibco) supplemented with 10% heat-inactivated fetal bovine serum (Gibco), 2 mM L-glutamine (Gibco), 10,000 units/mL of penicillin, 10,000 µg/mL of streptomycin, and 25 µg/mL of Gibco Amphotericin B (Thermo Fisher Scientific), 10 mM HEPES (Gibco), 1 mM Sodium pyruvate, MEM Non-Essential Amino Acids (Life Technologies) and 55 μM β-mercaptoethanol (Gibco). 0.1 million naive CD4^+ T cells were activated with plate-coated anti-CD3 (2.5 μg/ml; BD Biosciences) and soluble anti-CD28 (2 μg/ml; BD Biosciences) antibodies. The Th1 cell differentiation condition included recombinant murine (rm)IL-12 (10 ng/ml, PeproTech) and anti-IL-4 (10 μg/ml, BioLegend). The Th17 cell differentiation condition included rmIL-6 (10 ng/ml, PeproTech), rmTGF-β1 (5 ng/ml, PeproTech), rmIL-23 (10 ng/ml, PeproTech), anti-IL-4 (5 μg/ml, BioLegend) and anti-IFN-γ (10 μg/ml, eBioscience). The inducible T regulatory cell (iTreg) differentiation condition included rmTGF-β (5 ng/ml, PeproTech). 0.1 million naive CD8^+ T cells were activated with plate-coated anti-CD3 (10 μg/ml; BD Biosciences) and plate-coated anti-CD28 (10 μg/ml; BD Biosciences) antibodies. The Tc17 cell differentiation condition included rmIL-6 (10 ng/ml, PeproTech), rmTGF-β1 (2 ng/ml, PeproTech), rmIL-23 (25 ng/ml, PeproTech), rmIL1-β (5 ng/ml, PeproTech), and anti-IFN-γ (10 μg/ml, eBioscience). The Tc1 cell differentiation condition included rmIL-2 (5 ng/ml, PeproTech) and rm IL-12 (1 ng/ml, PeproTech). Different concentrations of Dleu2-17aa and scrPEP (Genscript) were added to the T cell culture from the beginning unless specified. Cells were cultured in U-bottom 96-well plates for 72 h and detected by flow cytometry.
# For in vitro mouse T cell differentiation, after 72 h of induction, cells were activated for 4–6 h at 37 °C with the Cell Stimulation Cocktail (Thermo Fisher Scientific) if intracellular cytokine staining is needed, surface markers were stained in FACS buffer (PBS containing 2% FBS) for 30 min at 4 °C protected from light. Cells were then fixed and permeabilized with the Foxp3 Staining Buffer Set (eBioscience) or BD Cytofix/Cytoperm (BD Biosciences) and were stained with fluorescent antibodies. After washing, stained cells were assayed with an LSRFortessa (BD) flow cytometer, and data were analyzed with FlowJo software. Single-cell suspensions from EAE mouse spleen or CNS (day 16 post-immunization) were derived through mechanical separation and passage through a 70-μm filter (Fisherbrand) and analyzed using similar steps. For flow cytometry, antibodies against CD4 (clone GK1.5, 1:200), CD62L (clone MEL-14, 1:200), CD44 (clone IM7, 1:200), CD25 (clone PC61.5, 1:200), IL-17A (clone eBio17B7, 1:200), IFN-γ (clone XMG1.2, 1:200), FoxP3 (clone FJK-16s, 1:200), CD184 (clone 2B11/CXCR4, 1:100), CD152 (clone BNI3 1:100) and CD357 (clone DTA-1 1:100) were from eBioscience, CD3 (clone 145-2C11, 1:200) was from Biolegend and TGFBI (1:100) were from proteintech. For Dleu2-17aa expression detection, C57BL/6 mice were sacrificed, and their spleens were removed and gently dissociated into single-cell suspensions. An Fc blocker was used to reduce potential nonspecific antibody staining caused by IgG. Surface staining was performed using monoclonal antibodies against CD45 (clone 30-F11), CD3 (clone 145-2C11), CD19 (clone SJ25C1), CD11c (clone N418), MHCII (clone M5/114.15.2), F4/80 (clone BM8) all at a dilution of 1:200 (from Biolengend) followed by fixation and permeabilization of the nuclear membrane BD Cytofix/Cytoperm (BD Biosciences). […]
# [2] = test system: Jurkat cells; assay: Uptake of FAM-labeled peptide, flow cytometry; type: cell-based, human; settings: 6-FAM conjugate, 10 μM, n = 3
# Protocol: (§1) Figure EV1 Dleu2-17aa enters CD4^+ T cells. (A) Representative histogram of Dleu2-17aa (10 μM) uptake in Jurkat and EL4 cell lines (n = 3). (B) Flow cytometry plots showing FAM-Dleu2-17aa^+ cells gated on CD4^+ T cells after treatment with increasing concentrations of FAM-Dleu2-17aa for 72 h (n = 3). (C) Histograms showing fluorescence intensity of FAM-Dleu2-17aa in CD4^+ T cells after treatment with increasing concentrations of FAM-Dleu2-17aa for 72 h. Gray filled: untreated control (n = 3). (D) Immunofluorescence imaging of FAM-Dleu2-17aa (10 μM) penetration by CD4^+ T cells isolated from WT mouse spleen (n = 3). Scale bars: 20 μm. Data information: n indicates biological replicate.
# (§2) The mouse T cell line EL4 (TIB-39) cells and fibroblast cell line NIH/3T3 (CRL-1658) cells were cultured in high-glucose DMEM (Thermo Fisher Scientific) supplemented with 10% fetal bovine serum (FBS; Gibco). The human T cell line Jurkat (TIB-152) cells were cultured in RPMI 1640 medium (Thermo Fisher Scientific) supplemented with 10% FBS. All lines were maintained at 37 °C in a humidified 5% CO2 atmosphere.
# [3] = test system: EL4 cells; assay: Uptake of FAM-labeled peptide, flow cytometry; type: cell-based, mouse; settings: 6-FAM conjugate, 10 μM, n = 3
# Protocol: as §1, §2
# [4] = test system: CD4+ T cells; assay: Uptake of FAM-labeled peptide, flow cytometry; type: cell-based; settings: 6-FAM conjugate, 72 h, mouse CD4+ T cells, n = 3
# Protocol: as §1
# [5] = test system: CD4+ T cells; assay: Subcellular distribution by confocal immunofluorescence microscopy; type: cell-based; settings: 6-FAM conjugate, 10 μM, 4 h, mouse CD4+ T cells, n = 3
# Protocol: as §1
# Mouse CD4^+ T cells and EL4 cells were seeded on glass coverslips and incubated with FAM-Dleu2-17aa (10 µM) for 4 h. Cultured cells were washed three times in PBS and fixed with 4% PFA for 10 min at RT, then incubated in Blocking Buffer (1 × PBS/5% BSA/0.3% Triton X-100) for 1 h. After being washed in PBS and air drying, the coverslips were mounted with DAPI (1:1000; Thermo Fisher Scientific). Images were acquired with Leica TCS SP8 laser scanning confocal microscope.
# [6] = test system: spinal cord of EAE mice; assay: Immunostaining of spinal cord sections of treated EAE mice; type: in vivo, mouse
# Text: We then analyzed the T cell subsets in the CNS of WT and KO mice after EAE induction to clarify the inflammatory responses. […] To investigate if Dleu2-17aa affects CNS pathology in EAE, we performed immunostaining of spinal cord sections on EAE mice treated with Dleu2-17aa or scrPEP. […] Neuronal staining was also unaffected by Dleu2-17aa, indicating no significant alterations in CNS inflammation.
# DAPI Dleu2-17aa CD4 DAPI Dleu2-17aa Iba1 DAPI Dleu2-17aa GFAP DAPI Dleu2-17aa NeuN
# Appendix Fig S7: Effects of Dleu2-17aa on CNS pathology.
# Representative immunofluorescence images showing Dleu2-17aa and CD4+ T cells (CD4),
# microglia (Iba1), astrocyte (GFAP), and neuron (NeuN) staining in spinal cords of WT and KO EAE […]
penetration of the peptide ([4]; 0-50 μM),concentration of maximal penetration [4] [µM],subcellular distribution [5],colocalization with astrocytes [6],colocalization with microglia [6],colocalization with neurons [6],presence in CD4+ T cells of spinal cord [6],Sequence,significance of CD4+Foxp3+ (%) vs PBS ([1]; two-tailed Student's t-test),effect on mouse iTreg cell differentiation ([1]; vs PBS),penetrating ability [2],penetrating ability [3]
,,,,,,,"MGRGALRRGRGRARRRGPRRGGTPG [DLEU2-25aa, 25 amino acid micropeptide of human DLEU2 transcripts]",✱✱ (**P<0.01),exhibited similar features in promoting mouse iTreg cell differentiation,,
dose-dependent penetration,25 to 50,predominantly localized in the nucleus,limited colocalization,some colocalization,minimal colocalization,expressed in all the CD4^+ T cell,MLGRRARRRGRGRRRPA [Dleu2-17aa],,,capacity to penetrate into different types of T cells,capacity to penetrate into different types of T cells
